Earlier results, collected in patent US20060216726A1, “Method for optimizing thiopurine efficacy and toxicity using mass spectrometry” (Prometheus Laboratories Inc., priority 2004, published 2006).

Conditions: patients with inflammatory bowel disease, azathioprine

Substance: 6-thioguanine nucleotide [6-TGN]
- Therapeutic threshold associated with efficacy: > 235 pmol/8×10^8 cells
